Tests used:
[1] = Visual color change and UV/Visible spectroscopy during titration with other anions
Description: (§1) Unless otherwise indicated, the following procedure was used for all examples involving titration experiments. Generally, titrant solutions comprising the fluoride receptor reagents (e.g., reagents N1, SR, and LR) were maintained at a concentration of 10 μm. Titrand solutions containing fluoride anion were 30 times more concentrated (e.g., 300 μm) to minimize dilution effects during titration. Unless otherwise indicated, the solvent for all solutions was dimethyl sulfoxide (DMSO).
(§2) Several experiments were conducted to observe the visible color changes that occur when NDI-based receptor reagents N1, SR, and LR were titrated with solutions containing F^− ions. Titrations were carried out using F^− in a number of solvents, including aqueous dimethyl sulfoxide (DMSO), dimethylformamide (DMF), dimethylacetamide (DMAc), acetonitrile, acetone, and tetrahydrofuran, with each solution containing up to 15% of H2O. Otherwise, the titrations followed the standard titration procedure outlined above.
(§3) As indicated above, UV/Visible light (UV/Vis) spectra were recorded on a PerkinElmer Lambda-25 UV/Vis spectrophotometer. For each experiment, receptor N1, SR, and CR concentrations were maintained at 10 μM. Titration of the F^− ion was conducted using the standard titration procedure outlined above.
Similarly, FIG. 5, panel (c) is a representation of the data obtained when receptor reagent N1 was titrated with various other […], including Cl^−, Br^−, I^−, NO3^−, acetate anion (AcO^−), and H2PO4^−.

[2] = Isothermal titration calorimetry (ITC), Cl^− recognition; type: binding; details: for K1 (association constant) / ΔG1: X^− = Cl^−, ITC, DMSO, 298 K
Procedure: (§4) Isothermal titration calorimetry (ITC) studies were conducted on a MICROCAL VP-ITC ultra-sensitive isothermal titration microcalorimeter. The VP-ITC unit, with a precise temperature control set at 25.0±0.1° C., directly measured heat evolved or absorbed in solution as a result of […] of reactant. For control, a reference cell was filled with dimethyl sulfoxide (DMSO). Titrations were run at 25° C.
(§5) Before the experiment, all the samples were degassed at 25° C. for 10 minutes us the THERMOVAC (a vacuum thermostating system). Each of 40 injections of 6 μL of a halide solution was delivered into a solution (1 mM) of reagent LS over 12 seconds by a syringe spinning at 270 rpm, with a 240 second equilibration time between injections. The instrument was controlled by MICROCAL OBSERVER software comprising a 16-bit A/D converter board for data acquisition, and a second interface board for calorimetric control. Heats of dilution were taken into account using data from control experiments, in which DMSO was injected into reagent LS in DMSO solution.
(§6) Using these characteristic ITC patterns, one could determine whether a given test solution contains F^− only or, alternatively, whether the test solution contains is a mixture of F^− with another halide anion.
In addition to the above species, the same experimental procedure was followed with control reagent CR.

[3] = Isothermal titration calorimetry (ITC), F^− recognition; type: binding; details: for K1 (association constant) / ΔG1 / K2 (association constant, second binding process) / ΔG2: X^− = F^−, DMSO, 298 K
Procedure: as §4, §5
From these experiments, it has been confirmed that a 1:[…] (reagent LS:F^− anion) type of stoichiometry occurs during F^− titration. Initially, π-anion-π interaction takes place, at concentrations up to one molar equivalent of F^− ion. At concentrations greater than one equivalent of F^−, the NH proton becomes directly involved in a second binding process through hydrogen bonding, a conclusion which is supported by the ^1H NMR experiments described above. The association constants for these two processes have been determined as follows: K1=4.11 10^4 M^−1 and K2=2.69 10^4 M^−1. […]

[4] = Visual color change and UV/Visible spectroscopy during F^− titration; details: for visible color change during F^− titration: solvents with up to 15% H2O, orange ≦5 equiv, pink >5 equiv F^−
Description: as §1, §2, §3

Cyclic voltammetry = type: physicochemical; details: 1 mM in 0.1 M TBAPF6/DMF, Ag/AgCl reference, 100 mV/s, room temperature
Procedure: Cyclic voltammetry (CV) was conducted on a PRINCETON APPLIED RESEARCH (PAR) VERSASTAT-3-200 potentiostat/galvanostat instrument using a standard electrochemical cell, consisting of a Pt-disk working electrode, Pt-wire counter electrode, and Ag/AgCl (3 N aq. NaCl) reference electrode. CV was recorded at 1 mM of reagent N1 in 0.1 M TBAPF6/DMF supporting electrolyte solution at room temperature at 100 mV/s scan rate (FIG. 11).

[5] = Fluorescence spectroscopy during F^− titration; details: for selectivity for F^− over other halide ions: color and emission spectra, Cl^−, Br^−, I^− up to 30 molar equivalents, DMSO
Description: as §1
Fluorescence spectroscopy was introduced to determine the sensitivity of NDI-based F^− ion sensors at very low concentrations. Fluorescence spectra were collected on a HORIBA JOBIN YVON FLUOROMAX-4 spectrofluorometer.

[6] = Isothermal titration calorimetry (ITC), I^− recognition; type: binding; details: solution with DMSO
Procedure: as §4, §5, §6

[7] = Isothermal titration calorimetry (ITC), Br^− recognition; type: binding; details: solution with DMSO
Procedure: as §4, §5, §6

[8] = Fluoride anion sensing in toothpastes (UV/Vis); details: 10 μM receptor, wet DMSO
Procedure: For the detection of F^− ion in toothpastes, small samples (1 gram) of each of two toothpastes (COLGATE anticavity fluoride toothpaste and ORAJEL toddler fluoride-free toothpaste) were extracted separately in 2 mL of aqueous DMSO. The COLGATE toothpaste contained 0.24% (w/v) NaF. Each resulting suspension was filtered to obtain colorless clear solution, which were separately added to 10 μM SR solutions.
The black trace represents SR without toothpaste; the light trace, SR with anticavity adult toothpaste containing 0.24% NaF; and the medium trace, SR with F^− free toddler toothpaste.

| K2 (association constant, second binding process) [3] [M⁻¹] | Compound | K1 (association constant) [2] [M⁻¹] | ΔG1 [2] [kcal/M] | K1 (association constant) [3] [M⁻¹] | ΔG1 [3] [kcal/M] | visible color change during F^− titration [4] | selectivity for F^− over other halide ions [5] | ΔG2 [3] [kcal/M] | also measured |
| --- | --- | --- | --- | --- | --- | --- | --- | --- | --- |
| – | O=C(Nc1cccc(NC(=O)c2cccc(C(=O)Nc3cccc(NC(=O)c4ccncc4)c3)c2)c1)c1ccncc1 [CR, reference compound] | 100 | -2.71 | 259 | -3.28 | – | – | – | visible color change in response to anions ([1]; any anion): did not change color in response to any anion; UV/Vis spectroscopic / colorimetric response to F^− titration ([4]; receptor 10 μM, DMSO): virtually no colorimetric response |
| – | O=C1c2ccc3c4c(ccc(c24)C(=O)N1c1ccncc1)C(=O)N(c1ccncc1)C3=O [N1] | 53 | -2.35 | 8470 | -5.36 | immediately changed color in a distinct two-step pattern | – | – | E1 ½, one-electron reduction to radical anion (Cyclic voltammetry): −342 mV; E2 ½, reduction to dianion (Cyclic voltammetry): −804 mV; increase of the 465 nm emission peak ([5]; receptor 10 μM in DMSO, 30 equiv. of F^−): 5.5 fold; optical response to other anions ([1]; Cl^−, Br^−, I^−, NO3^−, AcO^−, H2PO4^−, UV/Vis): did not show any optical response |
| 26900 | O=C(Nc1cccc(NC(=O)c2cccc(C(=O)Nc3cccc(NC(=O)c4ccc(N5C(=O)c6ccc7c8c(ccc(c68)C5=O)C(=O)N(c5ccncc5)C7=O)cc4)c3)c2)c1)c1ccc(N2C(=O)c3ccc4c5c(ccc(c35)C2=O)C(=O)N(c2ccncc2)C4=O)cc1 [LR] | 319 | -3.42 | 41100 | -6.29 | immediately changed color in a distinct two-step pattern | excellent selectivity | -6.04 | association constant Ka [6]: 105 M⁻¹; association constant Ka ([2]; Cl^−, solution with DMSO): 319 M⁻¹; association constant Ka [7]: 145 M⁻¹; F^− binding in presence of excess Cl^− ion ([3]; excess of Cl^−): binds F^− selectively |
| 442000 | O=C(Nc1cccc(N2C(=O)c3ccc4c5c(ccc(c35)C2=O)C(=O)N(c2ccncc2)C4=O)c1)c1cccc(C(=O)Nc2cccc(N3C(=O)c4ccc5c6c(ccc(c46)C3=O)C(=O)N(c3ccncc3)C5=O)c2)n1 [SR] | 1730 | -4.41 | 9.03e+08 | -12.20 | immediately changed color in a distinct two-step pattern | excellent selectivity | -7.70 | amplification of a new peak at 465 nm ([5]; receptor 1 nM in DMSO, F^− 30 nM, 381 nm excitation): 20 fold; optical response to Cl^− alone ([1]; Cl^−, 30 molar equivalents): no optical response; color change with F^− in the presence of Cl^− ([4]; titrated with F^− in the presence of 30 molar equivalents of Cl^−): showed the characteristic two-step color change associated with F^− even in the presence of Cl^−; response to F^− containing toothpaste solution (COLGATE, 0.24% NaF) [8]: turned light orange; response to F^−-free ORAJEL toothpaste [8]: did not change the spectrum of the receptor |

Reference: patent US8541240B2, “Colorimetric and fluorimetric fluoride sensing” (Florida State University Research Foundation, Inc., priority 2010, dated 2013)
